{"source": "patent US9695155B2", "about": "“Herbicidal substituted pyrimidinyloxy benzene compounds” (E. I. DU PONT DE NEMOURS AND COMPANY, priority 2013, dated 2017)", "key": {"bromegrass, downy": {"test_system": "bromegrass, downy", "experiment": "Test D postemergence", "assay_type": "in vivo, Bromus tectorum", "excerpt": "(§1) Seeds of plant species selected from bluegrass (annual bluegrass, Poa annua), blackgrass (Alopecurus myosuroides), canarygrass (littleseed canarygrass, Phalaris minor), chickweed (common chickweed, Stellaria media), galium (catchweed bedstraw, Galium aparine), bromegrass, downy (downy bromegrass, Bromus tectorum), field poppy (Papaver rhoeas), field violet (Viola arvensis), green foxtail (Setaria viridis), deadnettle (henbit deadnettle, Lamium amplexicaule), Italian ryegrass (Lolium multiflorum), kochia (Kochia scoparia), lambsquarters (Chenopodium album), oilseed rape (Brassica napus), pigweed (Amaranthus retroflexus), chamomile (scentless chamomile, Matricaria inodora), Russian thistle (Salsola kali), speedwell (bird's-eye speedwell, Veronica persica), spring barley (Hordeum vulgare), spring wheat (Triticum aestivum), wild buckwheat (Polygonum convolvulus), wild mustard (Sinapis arvensis), wild oat (Avena fatua), wild radish (Raphanus raphanistrum), windgrass (Apera spica-venti), winter barley (Hordeum vulgare), and winter wheat (Triticum aestivum) were planted into a silt loam soil and treated preemergence with test chemicals formulated in a non-phytotoxic solvent mixture which included a surfactant.\n(§2) At the same time, these species were planted in pots containing Redi-Earth® planting medium (Scotts Company, 14111 Scottslawn Road, Marysville, Ohio 43041) comprising spaghnum peat moss, vermiculite, wetting agent and starter nutrients and treated with postemergence applications of the test chemicals formulated in the same manner. Plants ranged in height from 2 to 18 cm (1- to 4-leaf stage). Treated plants and controls were maintained in a controlled growth environment for 7 to 21 days after which time all species were compared to controls and visually evaluated. Plant response ratings, summarized in Table D, are based on a scale of 0 to 100 where 0 is no effect and 100 is complete control. A dash (-) response means no test result."}, "wild mustard": {"test_system": "wild mustard", "experiment": "Test D postemergence", "assay_type": "in vivo, Sinapis arvensis", "excerpt": "as §1, §2"}, "windgrass": {"test_system": "windgrass", "experiment": "Test D preemergence", "assay_type": "in vivo, Apera spica-venti", "outline": "(§3)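 Plant response is a visual score from 0 (no effect) to 100 (complete control) relative to controls. Plants were kept in a controlled growth environment for 7 to 21 days after spraying. Preemergence treatments went onto silt loam soil; postemergence ones onto 1- to 4-leaf seedlings.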"}, "deadnettle": {"test_system": "deadnettle", "experiment": "Test D postemergence", "assay_type": "in vivo, Lamium amplexicaule", "excerpt": "as §1, §2"}, "chamomile": {"test_system": "chamomile", "experiment": "Test D postemergence", "assay_type": "in vivo, Matricaria inodora", "outline": "as §3"}, "kochia": {"test_system": "kochia", "experiment": "Test D postemergence", "assay_type": "in vivo, Kochia scoparia", "outline": "as §3"}, "canarygrass": {"test_system": "canarygrass", "experiment": "Test D postemergence", "assay_type": "in vivo, Phalaris minor", "excerpt": "as §1, §2"}, "field violet": {"test_system": "field violet", "experiment": "Test D preemergence", "assay_type": "in vivo, Viola arvensis", "excerpt": "as §1, §2"}, "field poppy": {"test_system": "field poppy", "experiment": "Test D preemergence", "assay_type": "in vivo, Papaver rhoeas", "outline": "as §3"}, "[1]": {"conditions": "31 g ai/ha, scale 0 to 100 (0 no effect, 100 complete control)"}, "[2]": {"conditions": "62 g ai/ha, scale 0 to 100 (0 no effect, 100 complete control)"}, "[3]": {"conditions": "125 g ai/ha, scale 0 to 100 (0 no effect, 100 complete control)"}, "[4]": {"conditions": "16 g ai/ha, scale 0 (no effect) to 100 (complete control)"}}, "data": [{"smiles": "FCc1cccc(Oc2ncc(Cl)cn2)c1-n1cc(I)cn1", "note": "[Compound 245]", "values": [{"measurement": "Plant response rating, Bromegrass, Downy", "setting": "bromegrass, downy; Postemergence, 62 g ai/ha, scale 0 to 100 (0 no effect, 100 complete control)", "value": 25}, {"measurement": "Plant response rating, Bromegrass, Downy", "setting": "bromegrass, downy; Postemergence, 31 g ai/ha, scale 0 to 100 (0 no effect, 100 complete control)", "value": 20}, {"measurement": "Plant response rating, Bromegrass, Downy", "setting": "bromegrass, downy; Postemergence, 125 g ai/ha, scale 0 to 100 (0 no effect, 100 complete control)", "value": 30}, {"measurement": "Plant response rating, Bromegrass, Downy", "setting": "bromegrass, downy; postemergence, 16 g ai/ha, scale 0 to 100, 0 no effect, 100 complete control", "value": 20}, {"measurement": "Plant response rating, Mustard, Wild", "setting": "wild mustard; 16 g ai/ha, scale 0-100", "value": 80}, {"measurement": "Plant response rating, Mustard, Wild", "setting": "wild mustard; [1]", "value": 70}, {"measurement": "Plant response rating, Mustard, Wild", "setting": "wild mustard; [2]", "value": 100}, {"measurement": "Plant response rating, Mustard, Wild", "setting": "wild mustard; [3]", "value": 98}, {"measurement": "Plant response rating, Windgrass", "setting": "windgrass; [4]", "value": 5}, {"measurement": "Plant response rating, Windgrass", "setting": "windgrass; 31 g ai/ha, scale 0 (no effect) to 100 (complete control)", "value": 15}, {"measurement": "Plant response rating, Windgrass", "setting": "windgrass; 125 g ai/ha, scale 0-100", "value": 60}, {"measurement": "Plant response rating, Deadnettle", "setting": "deadnettle; 16 g ai/ha, scale 0-100", "value": 100}, {"measurement": "Plant response rating, Deadnettle", "setting": "deadnettle; [1]", "value": 100}, {"measurement": "Plant response rating, Deadnettle", "setting": "deadnettle; [2]", "value": 100}, {"measurement": "Plant response rating, Deadnettle", "setting": "deadnettle; [3]", "value": 100}, {"measurement": "Plant response rating, Chamomile", "setting": "chamomile; 16 g ai/ha, scale 0-100", "value": 30}, {"measurement": "Plant response rating, Chamomile", "setting": "chamomile; [1]", "value": 30}, {"measurement": "Plant response rating, Chamomile", "setting": "chamomile; [2]", "value": 45}, {"measurement": "Plant response rating, Chamomile", "setting": "chamomile; [3]", "value": 40}, {"measurement": "Plant response rating, Kochia", "setting": "kochia; 16 g ai/ha, scale 0-100", "value": 25}, {"measurement": "Plant response rating, Kochia", "setting": "kochia; [1]", "value": 70}, {"measurement": "Plant response rating, Kochia", "setting": "kochia; [2]", "value": 90}, {"measurement": "Plant response rating, Kochia", "setting": "kochia; [3]", "value": 90}, {"measurement": "Plant response rating, Canarygrass", "setting": "canarygrass; 16 g ai/ha, scale 0-100", "value": 0}, {"measurement": "Plant response rating, Canarygrass", "setting": "canarygrass; [1]", "value": 20}, {"measurement": "Plant response rating, Canarygrass", "setting": "canarygrass; [2]", "value": 25}, {"measurement": "Plant response rating, Canarygrass", "setting": "canarygrass; [3]", "value": 35}, {"measurement": "Plant response rating, Field Violet", "setting": "field violet; [4]", "value": 55}, {"measurement": "Plant response rating, Field Violet", "setting": "field violet; 31 g ai/ha, scale 0-100", "value": 95}, {"measurement": "Plant response rating, Field Violet", "setting": "field violet; 62 g ai/ha, scale 0-100", "value": 100}, {"measurement": "Plant response rating, Field Violet", "setting": "field violet; 125 g ai/ha, scale 0-100", "value": 100}, {"measurement": "Plant response rating, Field Poppy", "setting": "field poppy; [4]", "value": 100}, {"measurement": "Plant response rating, Field Poppy", "setting": "field poppy; 31 g ai/ha, scale 0-100", "value": 100}, {"measurement": "Plant response rating, Field Poppy", "setting": "field poppy; 62 g ai/ha, scale 0-100", "value": 100}, {"measurement": "Plant response rating, Field Poppy", "setting": "field poppy; 125 g ai/ha, scale 0-100", "value": 100}]}]}
